{"source": "patent US6900219B2", "about": "“ABCA-1 elevating compounds” (CV Therapeutics, Inc., priority 2002, dated 2005)"}
{"test_system": "ABCA-1 gene", "test": "compounds tested and found to elevate cellular expression of the ABCA-1 gene (Examples 1-6; test not named)", "assay_type": "cell-based", "procedure": "Activity testing is conducted as described in those patents and patent applications referenced above, and in the Examples below, and by methods apparent to one skilled in the art."}
{"compound": "CN(C)c1ccc(C(=O)NC2=NC(=O)CS2)cc1", "note": "[[4-(dimethylamino)phenyl]-N-(4-oxo(1,3-thiazolin-2-yl))carboxamide]", "cellular expression of the ABCA-1 gene": "elevate cellular expression of the ABCA-1 gene"}
{"compound": "Cc1ccc(-c2csc(-n3ncc(C(=O)NC4CC4)c3C(C)C)n2)cc1", "note": "[5-isopropyl-1-(4-p-tolyl-thiazol-2-yl)-1H-pyrazole-4-carboxylic acid cyclopropylamide]", "cellular expression of the ABCA-1 gene": "elevate cellular expression of the ABCA-1 gene"}
{"compound": "CCc1ccc(C(=O)NCCN(C(=O)Nc2ccc(Oc3ccccc3)cc2)c2ccccc2)cc1", "note": "[(4-ethylphenyl)-N-(2-{phenyl[N-(4-phenoxyphenyl)carbamoyl]amino}ethyl) carboxamide]", "cellular expression of the ABCA-1 gene": "elevate cellular expression of the ABCA-1 gene"}
{"compound": "CCOC(=O)C1=C(NCCc2ccccc2)CCN(C(=O)c2ccccc2C)C1", "note": "[ethyl 1-[(2-methylphenyl)carbonyl]-4-[(2-phenylethyl)amino]-1,2,5,6-tetrahydropyridine-3-carboxylate]", "cellular expression of the ABCA-1 gene": "elevate cellular expression of the ABCA-1 gene"}
{"compound": "O=C(COCc1ccccc1)Nc1ccc2c(c1)OCCO2", "note": "[N-(2H,3H-benzo[e]1,4-dioxin-6-yl)-2-(phenylmethoxy)acetamide]", "cellular expression of the ABCA-1 gene": "elevate cellular expression of the ABCA-1 gene"}
{"compound": "CCC(c1nc2ccccc2c(=O)n1-c1ccc(Cl)cc1)N(CCOC)C(=O)Nc1ccc(F)cc1F", "note": "(stereo not shown) [[(2,4-difluorophenyl)amino]-N-{[3-(4-chlorophenyl)-4-oxo(3-hydroquinazolin-2-yl)]propyl}-N-(2-methoxyethyl)carboxamide]", "cellular expression of the ABCA-1 gene": "elevate cellular expression of the ABCA-1 gene"}
{"compound": "COc1ccc(/C(N)=N\\OC(=O)c2ccccc2OC)cc1", "note": "[(1E)-2-amino-1-aza-2-(4-methoxyphenyl)vinyl 2-methoxybenzoate]", "cellular expression of the ABCA-1 gene": "elevate cellular expression of the ABCA-1 gene"}
{"compound": "COC(=O)c1ccc(C(=O)NC2=NC(=O)CS2)cc1", "note": "[methyl 4-[N-(4-oxo-1,3-thiazolin-2-yl)carbamoyl]benzoate]", "cellular expression of the ABCA-1 gene": "elevate cellular expression of the ABCA-1 gene"}
{"compound": "CCc1c(C(=O)NCC(C)C)cnn1-c1nc(-c2ccc(Br)cc2)cs1", "note": "[{1-[4-(4-bromophenyl)(1,3-thiazol-2-yl)]-5-ethylpyrazol-4-yl}-N-(2-methylpropyl)carboxamide]", "cellular expression of the ABCA-1 gene": "elevate cellular expression of the ABCA-1 gene"}
{"compound": "Cc1c(C(=O)NC2CC2)cnn1-c1nc(C(C)(C)C)cs1", "note": "[{1-[4-(tert-butyl)(1,3-thiazol-2-yl)]-5-methylpyrazol-4-yl}-N-cyclopropylcarboxamide]", "cellular expression of the ABCA-1 gene": "elevate cellular expression of the ABCA-1 gene"}
{"compound": "CCCc1c(C(=O)Nc2nc3c(Cl)cccc3s2)cnn1-c1ccc(Cl)cc1", "note": "[N-(4-chlorobenzothiazol-2-yl)[1-(4-chlorophenyl)-5-propylpyrazol-4-yl]carboxamide]", "cellular expression of the ABCA-1 gene": "elevate cellular expression of the ABCA-1 gene"}
{"compound": "CCCN(C(=O)Nc1ccc(Br)cc1)C(C)c1nc2ccccc2c(=O)n1-c1ccc2ccccc2c1", "note": "(stereo not shown) [[(4-bromophenyl)amino]-N-[(3-(2-naphthyl)-4-oxo(3-hydroquinazolin-2-yl))ethyl]-N-propylcarboxamide]", "cellular expression of the ABCA-1 gene": "elevate cellular expression of the ABCA-1 gene"}
{"compound": "[4-(tert-butyl)phenyl]-N-(4-naphthyl(1,3-thiazol-2-yl))carboxamide", "cellular expression of the ABCA-1 gene": "elevate cellular expression of the ABCA-1 gene"}
{"compound": "CCn1c2ccccc2c2cc(NC(=O)c3ccc(C)cc3)ccc21", "note": "[N-(9-ethylcarbazol-3-yl)(4-methylphenyl)carboxamide]", "cellular expression of the ABCA-1 gene": "elevate cellular expression of the ABCA-1 gene"}
{"compound": "CCOC(=O)C1=C(NCCc2ccccc2)CCN(C(=O)c2ccc(Br)cc2)C1", "note": "[ethyl 1-[(4-bromophenyl)carbonyl]-4-[(2-phenylethyl)amino]-1,2,5,6-tetrahydropyridine-3-carboxylate]", "cellular expression of the ABCA-1 gene": "elevate cellular expression of the ABCA-1 gene"}
{"compound": "CCc1c(C(=O)N2CCN(C(=O)C(c3ccccc3)c3ccccc3)C(C)C2)cnn1-c1nc(-c2ccc(OC)cc2)cs1", "note": "(stereo not shown) [1-(4-{5-ethyl-1-[4-(4-methoxy-phenyl)-thiazol-2-yl]-1H-pyrazole-4-carbonyl}-2-methyl-piprazin-1-yl)-2,2-diphenyl-ethanone]", "cellular expression of the ABCA-1 gene": "elevate cellular expression of the ABCA-1 gene"}
{"compound": "CCCCC(=O)Nc1nc2ccccc2s1", "note": "[N-benzothiazol-2-ylpentanamide]", "cellular expression of the ABCA-1 gene": "elevate cellular expression of the ABCA-1 gene"}
{"compound": "Cc1ccc(NC(=O)N(CC(C)C)C(C)c2nc3ccccc3c(=O)n2-c2ccc3ccccc3c2)cc1", "note": "(stereo not shown) [[(4-methylphenyl)amino]-N-(2-methylpropyl)-N-[(3-(2-naphthyl)-4-oxo(3-hydroquinazolin-2-yl))ethyl]carboxamide]", "cellular expression of the ABCA-1 gene": "elevate cellular expression of the ABCA-1 gene"}
{"compound": "O=[N+]([O-])c1ccc(-c2cnc3ccc(Cl)cn23)cc1", "note": "[6-chloro-3-(4-nitrophenyl)-4-hydroimidazolo[1,2-a]pyridine]", "cellular expression of the ABCA-1 gene": "elevate cellular expression of the ABCA-1 gene"}
{"compound": "CCOc1ccc(NC(=O)Nc2ccc(Cl)cc2)cc1", "note": "[N-(4-ethoxyphenyl)[(4-chlorophenyl)amino]carboxamide]", "cellular expression of the ABCA-1 gene": "elevate cellular expression of the ABCA-1 gene"}
{"compound": "N#Cc1ccc(C(=O)NC2=NC(=O)CS2)cc1", "note": "[(4-cyanophenyl)-N-(4-oxo(1,3-thiazolin-2-yl))carboxamide]", "cellular expression of the ABCA-1 gene": "elevate cellular expression of the ABCA-1 gene"}
{"compound": "CCOC(=O)C1=C(NCCc2ccccc2)CCN(C(=O)c2ccc([N+](=O)[O-])cc2)C1", "note": "[ethyl 1-[(4-nitrophenyl)carbonyl]-4-[(2-phenylethyl)amino]-1,2,5,6-tetrahydropyridine-3-carboxylate]", "cellular expression of the ABCA-1 gene": "elevate cellular expression of the ABCA-1 gene"}
{"compound": "O=C(Nc1cccc(Cl)c1)Nc1ccccc1Cl", "note": "[N-(2-chlorophenyl)[(3-chlorophenyl)amino]carboxamide]", "cellular expression of the ABCA-1 gene": "elevate cellular expression of the ABCA-1 gene"}
{"compound": "O=C(Nc1ccc2c(c1)CCC2)NC1CCCCC1", "note": "[(cyclohexylamino)-N-indan-5-ylcarboxamide]", "cellular expression of the ABCA-1 gene": "elevate cellular expression of the ABCA-1 gene"}
{"compound": "O=C(Cc1cccs1)Nc1ncc(-c2ccccc2)s1", "note": "[N-(5-phenyl(1,3-thiazol-2-yl))-2-(2-thienyl)acetamide]", "cellular expression of the ABCA-1 gene": "elevate cellular expression of the ABCA-1 gene"}
{"compound": "COc1ccc(CN(CCc2ccc(OC)c(OC)c2)C(=O)C2CC2)cc1", "note": "[N-[2-(3,4-dimethoxyphenyl)ethyl]cyclopropyl-N-[(4-methoxyphenyl)methyl]-carboxamide]", "cellular expression of the ABCA-1 gene": "elevate cellular expression of the ABCA-1 gene"}
{"compound": "Nc1ccccc1-c1nc(-c2ccc(Cl)cc2)no1", "note": "[2-[3-(4-chlorophenyl)-1,2,4-oxadiazol-5-yl]phenylamine]", "cellular expression of the ABCA-1 gene": "elevate cellular expression of the ABCA-1 gene"}
{"compound": "O=C(Nc1ccc(Cl)cc1)c1ccc(Cl)cc1", "note": "[(4-chlorophenyl)-N-(4-chlorophenyl)carboxamide]", "cellular expression of the ABCA-1 gene": "elevate cellular expression of the ABCA-1 gene"}
{"compound": "O=C(NCCc1ccccn1)c1ccccc1", "note": "[phenyl-N-(2-(2-pyridyl)ethyl)carboxamide]", "cellular expression of the ABCA-1 gene": "elevate cellular expression of the ABCA-1 gene"}
{"compound": "Cc1c(C(=O)NC2CC2)cnn1-c1nc(-c2ccccc2)cs1", "note": "[N-cyclopropyl[5-methyl-1-(4-phenyl(1,3-thiazol-2-yl))pyrazol-4-yl]carboxamide]", "cellular expression of the ABCA-1 gene": "elevate cellular expression of the ABCA-1 gene"}
{"compound": "O=C(Cc1cccs1)Nc1nc2ccccc2s1", "note": "[N-benzothiazol-2-yl-2-(2-thienyl)acetamide]", "cellular expression of the ABCA-1 gene": "elevate cellular expression of the ABCA-1 gene"}
{"compound": "O=C(Nc1nc2ccccc2s1)c1cnn(-c2ccccc2)c1C(F)(F)F", "note": "[N-benzothiazol-2-yl[1-phenyl-5-(trifluoromethyl)pyrazol-4-yl]carboxamide]", "cellular expression of the ABCA-1 gene": "elevate cellular expression of the ABCA-1 gene"}
{"compound": "O=C(NC1=NCCS1)c1ccc(F)cc1", "note": "[(4-fluorophenyl)-N-(1,3-thiazolin-2-yl)carboxamide]", "cellular expression of the ABCA-1 gene": "elevate cellular expression of the ABCA-1 gene"}
{"compound": "Cc1ccc(NC(=O)c2ccccc2N)cc1", "note": "[(2-aminophenyl)-N-(4-methylphenyl)carboxamide]", "cellular expression of the ABCA-1 gene": "elevate cellular expression of the ABCA-1 gene"}
{"compound": "CCOC(=O)CCN(C(=O)CCc1ccccc1)c1ccc(CC)cc1", "note": "[ethyl 3-[(4-ethylphenyl)-N-(2-phenylethyl)carbonylamino]propanoate]", "cellular expression of the ABCA-1 gene": "elevate cellular expression of the ABCA-1 gene"}
{"compound": "O=C(NC1=NC(C(=O)O)CS1)c1ccc2c(c1)OCO2", "note": "(stereo not shown) [2-(2H-benzo[3,4-d]1,3-dioxolan-5-ylcarbonylamino)-1,3-thiazoline-4-carboxylic acid]", "cellular expression of the ABCA-1 gene": "elevate cellular expression of the ABCA-1 gene"}
{"compound": "CC(C)CN(C(=O)Nc1cccc(Br)c1)C(C)c1nc2ccccc2c(=O)n1-c1ccc2ccccc2c1", "note": "(stereo not shown) [[(3-bromophenyl)amino]-N-(2-methylpropyl)-N-[(3-(2-naphthyl)-4-oxo(3-hydroquinazolin-2-yl))ethyl]carboxamide]", "cellular expression of the ABCA-1 gene": "elevate cellular expression of the ABCA-1 gene"}
{"compound": "COc1cc(C(=O)NC2=NC(=O)CS2)cc(OC)c1OC", "note": "[(3,4,5-trimethoxyphenyl)-N-(4-oxo(1,3-thiazolin-2-yl))carboxamide]", "cellular expression of the ABCA-1 gene": "elevate cellular expression of the ABCA-1 gene"}
{"compound": "CCCc1c(C(=O)N2CCN(C(=O)C(CC)c3ccccc3)C(C)C2)cnn1-c1nc(-c2cccc(OC)c2)cs1", "note": "(stereo not shown) [1-(4-{1-[4-(3-methoxy-phenyl)-thiazol-2-yl]-5-propyl-1H-pyrazole-4-carbonyl}-2-methyl-piperazin-1-yl)-2-phenyl-butan-1-one]", "cellular expression of the ABCA-1 gene": "elevate cellular expression of the ABCA-1 gene"}
{"compound": "CCOC(=O)CCN(C(=O)CCc1ccccc1)c1ccc(Br)cc1", "note": "[ethyl 3-[(4-bromophenyl)-N-(2-phenylethyl)carbonylamino]propanoate]", "cellular expression of the ABCA-1 gene": "elevate cellular expression of the ABCA-1 gene"}
